# What was measured:
# JAK3 = target: T1, JAK3 (Homo sapiens, UniProt P52333); experiment: JAK3 Inhibition Assay; type: biochemical; settings: 1 μM poly(Glu)4Tyr, 5 μM ATP, 1 nM JAK3, 25° C.; read-out: JAK3 enzyme inhibition data (Ki)
# T1 sequence (P52333 1-1124): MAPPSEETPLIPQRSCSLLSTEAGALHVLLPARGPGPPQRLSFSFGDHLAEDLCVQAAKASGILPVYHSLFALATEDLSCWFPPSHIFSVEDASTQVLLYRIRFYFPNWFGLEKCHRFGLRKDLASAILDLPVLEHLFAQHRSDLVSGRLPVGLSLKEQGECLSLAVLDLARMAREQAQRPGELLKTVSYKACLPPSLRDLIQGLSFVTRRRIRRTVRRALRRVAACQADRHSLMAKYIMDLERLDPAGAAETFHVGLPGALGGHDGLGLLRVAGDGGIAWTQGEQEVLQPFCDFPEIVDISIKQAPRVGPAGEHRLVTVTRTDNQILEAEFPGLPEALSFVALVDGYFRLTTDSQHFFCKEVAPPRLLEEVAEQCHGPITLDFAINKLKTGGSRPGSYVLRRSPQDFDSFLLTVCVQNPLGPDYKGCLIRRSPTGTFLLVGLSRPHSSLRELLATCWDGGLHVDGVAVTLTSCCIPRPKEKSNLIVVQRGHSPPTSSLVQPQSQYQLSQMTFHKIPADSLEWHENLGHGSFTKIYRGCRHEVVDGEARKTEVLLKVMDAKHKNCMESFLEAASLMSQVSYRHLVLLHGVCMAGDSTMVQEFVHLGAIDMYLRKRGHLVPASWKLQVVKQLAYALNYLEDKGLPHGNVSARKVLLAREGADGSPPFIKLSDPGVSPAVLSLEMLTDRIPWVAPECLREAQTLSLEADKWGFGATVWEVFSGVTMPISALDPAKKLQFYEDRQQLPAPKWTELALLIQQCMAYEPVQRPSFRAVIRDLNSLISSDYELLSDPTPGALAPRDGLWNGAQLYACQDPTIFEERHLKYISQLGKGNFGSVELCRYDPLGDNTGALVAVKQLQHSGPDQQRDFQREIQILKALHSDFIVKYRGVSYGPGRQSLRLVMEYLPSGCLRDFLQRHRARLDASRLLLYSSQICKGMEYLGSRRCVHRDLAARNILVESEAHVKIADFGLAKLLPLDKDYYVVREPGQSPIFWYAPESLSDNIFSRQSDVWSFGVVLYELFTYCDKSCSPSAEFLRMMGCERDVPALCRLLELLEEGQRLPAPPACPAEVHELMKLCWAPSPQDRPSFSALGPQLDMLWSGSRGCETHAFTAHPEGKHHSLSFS
# Protocol: (§1) Compounds were screened for their ability to inhibit JAK3 using the assay shown below. Reactions were carried out in a kinase buffer containing 100 mM HEPES (pH 7.4), 1 mM DTT, 10 mM MgCl2, 25 mM NaCl, and 0.01% BSA. Substrate concentrations in the assay were 5 μM ATP (200 uCi/μmole ATP) and 1 μM poly(Glu)4Tyr. Reactions were carried out at 25° C. and 1 nM JAK3.
# (§2) To each well of a 96 well polycarbonate plate was added 1.5 μl of a candidate JAK3 inhibitor along with 50 μl of kinase buffer containing 2 μM poly(Glu)4Tyr and 10 μM ATP. This was then mixed and 50 μl of kinase buffer containing 2 nM JAK3 enzyme was added to start the reaction. After 20 minutes at room temperature (25° C.), the reaction was stopped with 50 μl of 20% trichloroacetic acid (TCA) that also contained 0.4 mM ATP. The entire contents of each well were then transferred to a 96 well glass fiber filter plate using a TomTek Cell Harvester. After washing, 60 μl of scintillation fluid was added and ^33P incorporation detected on a Perkin Elmer TopCount.
# JAK2 = JAK2 (Homo sapiens, UniProt O60674); experiment: JAK2 Inhibition Assay; type: biochemical; settings: 15 μM poly(Glu)4Tyr, 12 μM ATP; read-out: JAK2 enzyme inhibition data (Ki)
# Protocol: as §1, §2
# The assays were as described above in Example 36 except that JAK-2 enzyme was used, the final poly(Glu)4Tyr concentration was 15 μM, and final ATP concentration was 12 μM.
# Sequence of JAK2 (O60674 whole entry): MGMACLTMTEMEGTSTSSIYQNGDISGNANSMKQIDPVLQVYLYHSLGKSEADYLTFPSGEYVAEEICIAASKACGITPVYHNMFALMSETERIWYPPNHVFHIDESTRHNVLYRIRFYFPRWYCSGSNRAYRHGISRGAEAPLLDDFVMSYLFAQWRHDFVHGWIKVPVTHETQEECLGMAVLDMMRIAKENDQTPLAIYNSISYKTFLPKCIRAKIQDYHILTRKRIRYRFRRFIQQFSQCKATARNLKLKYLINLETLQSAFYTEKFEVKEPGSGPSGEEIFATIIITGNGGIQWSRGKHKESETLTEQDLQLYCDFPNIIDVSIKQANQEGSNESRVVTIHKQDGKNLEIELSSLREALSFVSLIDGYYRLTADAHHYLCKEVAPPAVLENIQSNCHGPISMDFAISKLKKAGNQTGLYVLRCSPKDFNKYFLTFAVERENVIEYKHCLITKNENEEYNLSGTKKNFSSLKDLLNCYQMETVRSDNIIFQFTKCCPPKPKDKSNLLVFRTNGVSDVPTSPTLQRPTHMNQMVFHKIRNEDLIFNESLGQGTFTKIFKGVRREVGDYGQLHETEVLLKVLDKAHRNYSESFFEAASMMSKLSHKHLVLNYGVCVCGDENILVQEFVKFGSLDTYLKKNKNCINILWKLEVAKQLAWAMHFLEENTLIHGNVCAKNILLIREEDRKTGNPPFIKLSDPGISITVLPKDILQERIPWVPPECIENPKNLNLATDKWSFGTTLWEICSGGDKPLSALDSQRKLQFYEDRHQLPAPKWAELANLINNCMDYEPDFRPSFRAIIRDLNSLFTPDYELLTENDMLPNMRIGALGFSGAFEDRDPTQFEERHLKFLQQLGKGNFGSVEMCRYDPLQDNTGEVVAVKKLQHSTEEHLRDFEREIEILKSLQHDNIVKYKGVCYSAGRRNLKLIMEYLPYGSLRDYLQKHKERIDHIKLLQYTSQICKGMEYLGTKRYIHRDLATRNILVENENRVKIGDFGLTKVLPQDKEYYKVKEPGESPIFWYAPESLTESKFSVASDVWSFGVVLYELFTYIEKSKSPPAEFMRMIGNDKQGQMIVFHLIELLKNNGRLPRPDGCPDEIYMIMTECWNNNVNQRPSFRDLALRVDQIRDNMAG
Compound,Ki (JAK3),Ki (JAK2)
N#CCCN(C(=O)c1cc(-c2ncnc3[nH]ccc23)c[nH]1)C1CCCC1 [Compound 139],100 to 500 nM,< 100 nM
O=C(O)C1CCCCC1C(=O)Nc1nc(-c2ncnc3[nH]ccc23)cs1 (centres unmarked) [Compound 144],100 to 500 nM,100 to 500 nM
O=C(c1cc(-c2ncnc3[nH]ccc23)c[nH]1)N(CCC(F)(F)F)CC1CC1 [Compound 110],< 100 nM,< 100 nM
O=C(Cc1ccccc1F)Nc1nc(-c2ncnc3[nH]ccc23)cs1 [Compound 156],100 to 500 nM,< 100 nM
CC(CC(=O)Nc1nc(-c2ncnc3[nH]ccc23)cs1)CC(C)(C)C (centres unmarked) [Compound 33],100 to 500 nM,< 100 nM

# Further lines, results first:
Ki (JAK3),Ki (JAK2),Compound
< 100 nM,< 100 nM,O=C(Nc1nc(-c2ncnc3[nH]ccc23)cs1)C1CCCOC1 (centres unmarked) [Compound 61]
100 to 500 nM,100 to 500 nM,O=C(O)CC1(CC(=O)Nc2nc(-c3ncnc4[nH]ccc34)cs2)CCCC1 [Compound 143]

# — patent publication US20120316186A1, “DEAZAPURINES USEFUL AS INHIBITORS OF JANUS KINASES” (priority 2006, published 2012)
